Eight compounds from patent US8158656B2, “2-indolinone derivatives as multi-target protein kinase inhibitors and histone deacetylase inhibitors” (Shenzhen Chipscreen Biosciences Ltd., priority 2008, dated 2012) can be followed below.

In experiment [1] the test system is HUVEC cells. The experiment is described as follows: VEGF ligand-dependent cell proliferation. Type of experiment: cell-based. Conditions: Homo sapiens, VEGF 165 50 ng/ml, 72 hours, MTS. Here is the method: VEGF dependent cell proliferation:
HUVEC cells were plated into 96-well plates at 6,000 per well and incubated with serum-free medium for 2 hours. Compounds and VEGF 165 (50 ng/ml) were added and incubated for 72 hours in serum-free medium. The effects on proliferation were determined by addition of MTS reagent (Promega) according to the instruction, incubation for 2 hours at 37° C. in CO2 incubator, and record the absorbance at 490 nm using an ELISA plate reader.

For experiment [2], the system named is total HDAC enzyme. The experiment is described as follows: Total HDAC enzyme activity, HDAC Fluorimetric Assay (HeLa extract). Type of experiment: biochemical, human. As to the method:
Measurement of in vitro inhibition of total HDAC enzyme activity:
The in vitro inhibition of total HDAC enzyme was determined by HDAC Fluorimetric Assay/Drug Discovery Kit (BIOMOL) according to manufacture's instruction. • 1. Add Assay buffer, diluted trichostatin A or test inhibitor to appropriate wells of the microtiter plate. Following table lists examples of various assay types and the additions required for each test.
• 2. Add diluted HeLa extract or other HDAC sample to all wells except those that are to be “No Enzyme Controls” (Blank). • 3. Allow diluted Fluor de Lys™ Substrate and the samples in the microtiter plate to equilibrate to assay temperature (25° C.). • 4. Initiate HDAC reactions by adding diluted substrate (25 μl) to each well and mixing thoroughly. • 5. Allow HDAC reactions to proceed for desired length of time and then stop them by addition of Fluor de Lys™ Developer (50 μl). Incubate plate at room temperature (25° C.) for 10-15 min. • 6. Read samples in a microtiter-plate reading fluorimeter capable of excitation at a wavelength in the range 350-380 nm and detection of emitted light in the range 440-460 nm. Measurement of in vivo inhibition of HDAC subtype activity: […]

The test system of experiment [3] is Class I HDAC. The experiment is described as follows: P21 reporter assay in HeLa cells. In kind it is cell-based, human. Conditions: for EC50: 24 hours; for Class I HDAC (P21 reporter assay) % Max Resp of CS055 at 3 μM: relative to CS055 at 3 μM. Here is the method:
HDAC subtype selectivity inhibition assay of tested compounds was carried out by several reporter gene assays experiments. Briefly, HeLa cells were seeded in 96-well plates the day before transfection to give a confluence of 50-80%. Cells were transfected with one of reporter gene plasmid containing a promoter sequence or response element upstream of a luciferase gene construct using FuGene6 transfection reagent according to the manufacturer's instruction (Roche). The promoters or response elements including p21-promoter, gdf11-promoter, MEF-binding element (MEF2), Nur77-promoter were fused upstream to the luciferase gene reporter construct. For normalizing the transfection efficiency, a GFP expression plasmid was cotransfected. Cells were allowed to express protein for 24 hours followed by addition of individual compounds or the vehicle (DMSO). 24 hours later the cells were harvested, and the luciferase assay and GFP assay were performed using corresponding assay kits according to the manufacturer's instructions (Promega).
(Reporter assays use an easily measured gene product as a stand-in for the process of interest.)

Experiment [4] deals with HL60. Nature of the experiment: Tumor cell proliferation (MTS), HL60. In kind it is cell-based. Conditions: Homo sapiens, HL-60, HL60, 72 hours. Here is the method: (§1) Measurement of in vivo cell proliferation:
(§2) Tumor cells were trypsinized and plated into 96-well plates at 3,000 per well and incubated in complete medium with 10% FBS for 24 hours. Compounds were added over a final concentration range of 100 μmol/L to 100 nmol/L in 0.1% DMSO and incubated for 72 hours in complete medium. The effects on proliferation were determined by addition of MTS reagent (Promega) according to the instruction, incubation for 2 hours at 37° C. in CO2 incubator, and record the absorbance at 490 nm using an ELISA plate reader.

Experiment [5] relates to Hut-78. Nature of the experiment: Tumor cell proliferation (MTS), Hut-78. In kind it is cell-based. Conditions: Homo sapiens, HuT78, Hut-78, 72 hours. As to the method:
as §1, §2

Experiment [6] deals with Raji. Nature of the experiment: Tumor cell proliferation (MTS), Raji. Conditions: Homo sapiens, 72 hours. Type of experiment: cell-based. As to the method:
as §1, §2

Experiment [7] relates to Jurkat. Nature of the experiment: Tumor cell proliferation (MTS), Jurkat. In kind it is cell-based. Conditions: Homo sapiens, 72 hours. Here is the method:
as §1, §2

Experiment [8] has as its system U937. Nature of the experiment: Tumor cell proliferation (MTS), U937. Type of experiment: cell-based. The settings on record: Homo sapiens, U-937, U937, 72 hours. As to the method:
as §1, §2

Experiment [9] relates to Ramos. Nature of the experiment: Tumor cell proliferation (MTS), Ramos. Type of experiment: cell-based. Conditions: Homo sapiens, 72 hours. Here is the method:
as §1, §2

Experiment [10] relates to A549. The experiment is described as follows: Tumor cell proliferation (MTS), A549. In kind it is cell-based. The settings on record: Homo sapiens, A549, 72 hours. As to the method: as §1, §2
The subject of experiment [11] is MCF7. Nature of the experiment: Tumor cell proliferation (MTS), MCF7. In kind it is cell-based. Conditions: Homo sapiens, MCF7, 72 hours. Here is the method: as §1, §2
Experiment [12] has as its system HCT-8. Nature of the experiment: Tumor cell proliferation (MTS), HCT-8. Type of experiment: cell-based. Conditions: Homo sapiens, HCT-8, 72 hours. As to the method:
as §1, §2

Take `Cc1[nH]c(/C=C2\C(=O)Nc3ccc(F)cc32)c(C)c1C(=O)NCCNc1ccc(C(=O)Nc2ccccc2N)cn1` [Example 3, (Z)-N-(2-aminophenyl)-6-(2-(2-((5-fluoro-2-oxoindolin-3-ylidene)methyl)-3,5-dimethyl-1H-pyrrole-4-carboxamido)ethylamino)nicotinamide]: the GI50 in [1] was less than 1 nM; in experiment [4], 4.15 µM; in experiment [5] it was 1.77 µM; in experiment [6], 3.45 µM; in experiment [7], greater than 60 µM; in experiment [8] it was greater than 60 µM. For the same compound, the GI50 in experiment [9], in experiment [10], in experiment [11] and in experiment [12] was greater than 60 µM in each case. In addition, the “% inhibition of total HDAC enzyme activity at 30 μM” value (“% inhibition” below) in [2] is 9.20%. In addition, the EC50 in experiment [3] is 2.3 µM. In experiment [3], the “Class I HDAC (P21 reporter assay) % Max Resp of CS055 at 3 μM” value was 131.7%.

With `Cc1[nH]c(/C=N/N=C2\C(=O)Nc3ccc(F)cc32)c(C)c1C(=O)NCCNc1ccc(C(=O)Nc2ccccc2N)cn1` [Example 4, N-(2-aminophenyl)-6-(2-(2-(((5-fluoro-2-oxoindolin-3-ylidene)hydrazono)-methyl)-3,5-dimethyl-1H-pyrrole-4-carboxamido)ethylamino)nicotinamide], the GI50 in experiment [1] was 1 nM; in experiment [4], greater than 60 µM; in experiment [5], greater than 60 µM; in experiment [6], greater than 60 µM; in [7], greater than 60 µM; in [8] it was greater than 60 µM. For the same compound, the GI50 in experiment [9], in experiment [10], in experiment [11] and in experiment [12] was greater than 60 µM in each case. Further, in experiment [2], the “% inhibition” value is given as 6.90%. Also, in [3], the “Class I HDAC (P21 reporter assay) % Max Resp of CS055 at 3 μM” value is listed as 3.3%.

As for `Cc1[nH]c(/C=C2\C(=O)Nc3ccc(F)cc32)c(C)c1C(=O)NCCCNc1ccc(C(=O)Nc2ccccc2N)cn1` [Example 6, (Z)-N-(2-aminophenyl)-6-(3-(2-((5-fluoro-2-oxoindolin-3-ylidene)methyl)-3,5-dimethyl-1H-pyrrole-4-carboxamido)propylamino)nicotinamide], the GI50 in experiment [1] is 9 nM; in experiment [4] it was greater than 60 µM; in [5], greater than 60 µM; in experiment [6] it was 3.45 µM; in experiment [7] it was greater than 60 µM; in [8], greater than 60 µM. The GI50 in experiment [9], in experiment [10], in [11] and in experiment [12] was greater than 60 µM in each case. The “% inhibition” value in experiment [2] is 12.50%. Further, the EC50 in experiment [3] was determined as 2.5 µM. For the same compound, the “Class I HDAC (P21 reporter assay) % Max Resp of CS055 at 3 μM” value in experiment [3] was determined as 74.6%.

For `Cc1[nH]c(/C=N/N=C2\C(=O)Nc3ccc(F)cc32)c(C)c1C(=O)NCCCNc1ccc(C(=O)Nc2ccccc2N)cn1` [Example 7, N-(2-aminophenyl)-6-(3-(2-(((5-fluoro-2-oxoindolin-3-ylidene)hydrazono)-methyl)-3,5-dimethyl-1H-pyrrole-4-carboxamido)propylamino)nicotinamide], the GI50 in [1] was 387 nM; in experiment [4], 7.91 µM; in experiment [5] it was greater than 60 µM; in experiment [6] it was greater than 60 µM; in experiment [7], greater than 60 µM; in experiment [8], greater than 60 µM. For the same compound, the GI50 in experiment [9], in experiment [10], in experiment [11] and in [12] was greater than 60 µM throughout. For the same compound, the “% inhibition” value in [2] was 7.80%. In addition, the “Class I HDAC (P21 reporter assay) % Max Resp of CS055 at 3 μM” value in [3] came out at 6.2%.

Consider `Cc1[nH]c(/C=C2\C(=O)Nc3ccc(F)cc32)c(C)c1C(=O)NCCCCNc1ccc(C(=O)Nc2ccccc2N)cn1` [Example 9, (Z)-N-(2-aminophenyl)-6-(4-(2-((5-fluoro-2-oxoindolin-3-ylidene)methyl)-3,5-dimethyl-1H-pyrrole-4-carboxamido)butylamino)nicotinamide], for which the GI50 was 12 nM in experiment [1]; 1.27 µM in [4]; 1.67 µM in experiment [5]; greater than 60 µM in [6]; greater than 60 µM in [7]; greater than 60 µM in [8]. The concentration for 50% growth inhibition (GI50) in experiment [9], in [10], in experiment [11] and in experiment [12] was greater than 60 µM throughout. Besides, in experiment [2], the “% inhibition” value worked out at 6.30%. In addition, the EC50 in [3] came out at 13.4 µM. For the same compound, in experiment [3], the “Class I HDAC (P21 reporter assay) % Max Resp of CS055 at 3 μM” value worked out at 89.1%.

Turning to `Cc1[nH]c(/C=N/N=C2\C(=O)Nc3ccc(F)cc32)c(C)c1C(=O)NCCCCNc1ccc(C(=O)Nc2ccccc2N)cn1` [Example 10, N-(2-aminophenyl)-6-(4-(2-(((5-fluoro-2-oxoindolin-3-ylidene)hydrazono)-methyl)-3,5-dimethyl-1H-pyrrole-4-carboxamido)butylamino)nicotinamide], the GI50 in experiment [1] is 568 nM; in experiment [4], 6.28 µM; in experiment [5], greater than 60 µM; in [6] it was greater than 60 µM; in experiment [7], greater than 60 µM; in [8] it was greater than 60 µM. Further, the GI50 in experiment [9], in [10], in experiment [11] and in [12] was greater than 60 µM throughout. The “% inhibition” value in [2] stood at 6.10%. The “Class I HDAC (P21 reporter assay) % Max Resp of CS055 at 3 μM” value in experiment [3] was found to be 7.3%.

`Cc1[nH]c(/C=C2\C(=O)Nc3ccc(F)cc32)c(C)c1C(=O)NCCNc1ccc(C(=O)Nc2ccc(F)cc2N)cn1` [Example 13, (Z)-N-(2-amino-4-fluorophenyl)-6-(2-(2-((5-fluoro-2-oxoindolin-3-ylidene)-methyl)-3,5-dimethyl-1H-pyrrole-4-carboxamido)ethylamino)nicotinamide]: the GI50 in experiment [1] was 7 nM; in [4], greater than 60 µM; in [5] it was greater than 60 µM; in experiment [6] it was greater than 60 µM; in experiment [7] it was greater than 60 µM; in experiment [8], greater than 60 µM. The GI50 in experiment [9], in experiment [10], in experiment [11] and in experiment [12] was greater than 60 µM in each case. Further, the “% inhibition” value in experiment [2] is listed as −2.60%. Further, the “Class I HDAC (P21 reporter assay) % Max Resp of CS055 at 3 μM” value in experiment [3] is on record as 2.1%.

`Cc1[nH]c(/C=N/N=C2\C(=O)Nc3ccc(F)cc32)c(C)c1C(=O)NCCNc1ccc(C(=O)Nc2ccc(F)cc2N)cn1` [Example 14, N-(2-amino-4-fluorophenyl)-6-(2-(2-(((5-fluoro-2-oxoindolin-3-ylidene)-hydrazono)methyl)-3,5-dimethyl-1H-pyrrole-4-carboxamido)ethylamino)nicotinamide]: the concentration for 50% growth inhibition (GI50) was 201 nM in experiment [1]; greater than 60 µM in experiment [4]; greater than 60 µM in experiment [5]; greater than 60 µM in experiment [6]; greater than 60 µM in [7]; greater than 60 µM in experiment [8]. The 50% growth inhibitory concentration (GI50) in experiment [9], in experiment [10], in experiment [11] and in [12] was greater than 60 µM in each case. Moreover, the “% inhibition” value in [2] is on record as 1.00%. Also, the “Class I HDAC (P21 reporter assay) % Max Resp of CS055 at 3 μM” value in experiment [3] was determined as 2.1%.

The term GI50 denotes the concentration giving 50% growth inhibition. Low readings indicate greater sensitivity of the cells, high ones lower sensitivity of the cells. As usually defined, the EC50 is the concentration that produces a half-maximal response. A high value points to a need for much substance.
